Laboratory results reported in patent US20240342242A1, “COMPOSITIONS AND METHODS FOR TREATING MASTITIS” (Zoetis Services LLC, priority 2021, published 2024).
“And” between values parts separate entries of the source, which are not always exact repeats. Equal entries are not always repeated. “Also recorded” adds a separate entry of the source.

What was measured:
S. aureus = S. aureus challenge study, treatment at onset of clinical mastitis, Example 3; assay type: in vivo, Holstein or Holstein Crossbred cattle; conditions: 6 doses at 50 mg/10 mL intramammary
Description: Bovine mastitis specific bacterial pathogens were used to experimentally infect periparturient cows and first lactation heifer Holstein or Holstein Crossbred cattle to test the efficacy of the CATH2 peptide in the treatment and prevention of clinical mastitis.
A frozen stock of S. aureus was used to prepare a suspension of approximately 600 colony forming units in 5 mL. Standard plate counts were conducted on the challenge suspension immediately after preparation and after all animals were challenged. Details of each challenge inoculum preparation including concentration (CFU/5 mL) for pre- and post-challenge preparation were documented and confirmed to be in range.
Quarters that were bacteriologically positive for S. aureus were regarded as infected. Clinical mastitis was defined as a challenged quarter having a clinical score of at least 1 for either milk appearance or udder evaluation with an isolation of S. aureus (≥100 cfu/mL) from the quarter within 2 days of clinical signs. Sub-clinical chronic mastitis was defined as isolation of S. aureus (≥100 cfu/mL) from a challenged quarter and elevated SCC (>200,000 cells/mL) in the absence of abnormal milk or udder score.
All treatments were administered in accordance with the randomization provided by the biometrician into the challenged quarter (left front) of the udder. Treatments were administered upon onset of clinical mastitis. In this model, onset is approximately 1 to 3 days post-challenge. Upon confirmation of clinical mastitis, treatments were administered at the next milking. Treatments were administered with a 10 mL syringe via intramammary infusion and recorded.
Each animal with clinical mastitis received a total of 6 doses at 50 mg/10 mL by intramammary infusion administered twice daily for 3 consecutive days.

[1] = Dry off therapy: transcriptomics of udder secretions in healthy dry cows, Example 5; assay type: in vivo, Holstein cattle; conditions: 400 mg/10 mL, 1-day post administration
Description: In an additional study, pregnant multiparous Holstein cattle were treated with a single dose of CATH2 at approximately 60 days prior to expected calving dates for this group of animals by intramammary infusion following milking. These animals were considered to be entering the so-called dry period in which animals are no longer milked until post-partition. The objective of this study was to understand the immunomodulatory activity of varying doses of CATH2 administered by intramammary infusion in healthy multiparous cows at dry off.
Udder secretion samples were collected 1, 2, and 7 days post administration. Samples were also collected from the neighboring Right Rear quarter as an untreated in animal control of varying immunological responses. The samples were processed for transcriptomics analysis to determine the healthy animal response to treatment alone.

[2] = system: primary bovine mammary epithelial cells (pMEC); assay: Cytokine production in primary bovine mammary epithelial cells, unstimulated or LPS/MPLA (TLR 4 agonist) stimulated; assay type: cell-based
From the text: (§1) Chicken CATH2 is a host defense peptide that is naturally expressed in chicken heterophils and several tissues. […] LPS and MPLA serve as potent Toll-like Receptor 4 (TLR 4) agonists in this assay and induce high levels of proinflammatory cytokines such as interleukin 6 (IL-6) and tumor necrosis factor alpha (TNFα).

E. coli challenge strain = assay: Antibacterial activity of 2 mg peptide in varying milk concentrations, 2-minute pre-incubation; assay type: cell-based
Description: In a follow up assay to better understand the impact of milk protein binding on antibacterial activity that may be seen in vivo, a ratio of peptide to milk protein was estimated. In this assay varying concentrations of milk in bacterial growth medium was incubated with 2 mg of peptide. Two minutes after adding peptide to the tube, 500 colony forming units (CFU)/mL of the E. coli challenge strain was added. The timing was purposeful for understanding how quickly the peptide can be completely bound. The low inoculum was also chosen intentionally to more closely replicate the dose provided in the in vivo challenge model, thereby providing a worst-case scenario on exposure to free peptide. […] The quantity of milk protein was enough to bind 2 mg of CATH2 peptide. The bacterial growth was evaluated at 1, 2, 4, 6, and 24 hours post inoculation. […] The lower level of detection was 10 CFU/mL and the upper level of quantification measured for the purposes of this assay was set to 1.5×10^5 CFU/mL.

[3] = Transcriptomics after treatment alone in the lactating cow model; assay type: in vivo; conditions: 100 mg/10 mL, 12 hour post administration, lactating cows
From the text: Prior to challenge in the lactating cow model, there is a consistent treatment effect of CATH2 alone indicating a modulation of the animal immune response. In the lactating cow model, these shifts lead to an enhanced response in clearance of the E. coli and resolution of inflammation as compared to untreated controls.

[4] = system: bovine peripheral blood mononuclear cells (PBMCs); assay: Cytokine production in bovine PBMCs after TLR 4 agonist stimulation; assay type: cell-based; conditions: LPS or MPLA stimulation
From the text: as §1

bacteria = assay: Modified minimal bactericidal concentration assay in varying concentrations of milk; assay type: cell-based; conditions: as little as 10% whole and skim milk
From the text: The CATH2 peptide has antibacterial activity where it causes membrane disruption and lysis of the bacterial cell. The peptide also has cytotoxic effects on eukaryotic cells at high concentrations due the high positive charge, +8, and its ability to integrate in the cell membrane, resulting in membrane disruption. To further understand the behavior of the peptide in the context of the mammary gland, the inventors investigated the antibacterial activity and cytotoxicity of the peptide in the presence of milk. […] This finding led the inventors to investigate the impact of milk protein binding on peptide activity.

Escherichia coli [5] = assay: E. coli intramammary challenge in lactating dairy cows, CATH2 and analogs, Example 2; assay type: in vivo, Holstein cows; conditions: for overall protection against mastitis following IMM challenge with E. coli / intramammary infection observed / animals meeting criteria for clinical mastitis: 50 mg/10 mL; for intramammary infection observed: 4 treatments prior to challenge, vehicle 100%; for animals meeting criteria for clinical mastitis: 4 treatments twice daily for 2 days prior to challenge, vehicle 100.0%, FIG. 9; for milk concentrations of BSA, milk haptoglobin, milk amyloid A, IL-1 beta, IL-6, IL-8, IL-10 and TNFα: FIGS. 13-20
From the text: The objective of this study was to evaluate the efficacy of Cathelicidin-2 peptide analogs for reduction of incidence of clinical mastitis and severity of infection following Escherichia coli intramammary (IMM) infusion in lactating dairy cows. Healthy Holstein cows in their second or third lactation were selected based on culture negative results for mastitis pathogens and low somatic cell counts≤200,000. Enrolled animals were randomly assigned to treatment. Cows were commingled, housed and fed according to standard site procedures, and fitted with sensors to monitor activity. Cows were milked twice daily at regular intervals. The assigned treatment was administered following am and pm milkings starting 2 days prior to challenge. Four total treatments and the challenge were administered in the left front quarter. Treatment was administered twice daily for 2 days prior to challenge. The E. coli challenge material was administered to the treated quarter on the morning of Day 0 of study. The treatment regimen was designed to evaluate efficacy for prevention of the disease. All peptides were dosed at 50 mg/10 mL per dose. Milk samples were collected for analysis at 6-hour intervals on Day 0, and at each morning's milking from Day 1 through Day 7, and on Days 11 and 14.

Streptococcus uberis = assay: S. uberis challenge study, Example 4; assay type: in vivo, cattle
Escherichia coli [6] = assay: Lactating cow E. coli mastitis challenge model, Example 1; assay type: in vivo, Holstein Crossbred Cattle
Description: A frozen stock of E. coli was used to prepare a suspension of approximately 500 colony forming units/10 mL using standard site procedures. Standard plate counts were conducted on the challenge suspension immediately after preparation and after all animals were challenged. Details of the challenge inoculum preparation including concentration (CFU/10 mL) for the pre- and post-challenge preparation were documented and confirmed to be in range. Locally sourced healthy adult female Holstein Crossbred Cattle in the first, second, or third lactation were enrolled into the studies. Animals challenged with E. coli were susceptible to E. coli as determined by vaccination records and low serum titer to E. coli. Animals enrolled were confirmed to be between 14 and 35 days post-calving at enrollment. […] Following challenge quarters bacteriologically positive for E. coli were regarded as infected. Clinical mastitis was defined as a challenged quarter having a clinical score of at least 1 for either milk appearance or udder evaluation and an isolation of E. coli from the challenged quarter. Subclinical mastitis was defined as isolation of E. coli from the challenged quarter and elevated SSC in the absence of abnormal milk or udder score. This isolate elicits a moderate case of E. coli mastitis with body temperature increase in the first 24 hours post challenge and consistent local signs on udder appearance and milk quality.
In this study, animals were treated with 50 mg/10 mL at 12-hour intervals starting 12 hours prior to E. coli challenge. A total of 4 doses were administered by intramammary infusion. Dose administration concluded 24 hours after challenge. The objective of the study was to evaluate the potential for CATH2 to reduce the severity of clinical mastitis by modulation of the host immune response. The dose regimen was designed to ensure sufficient exposure in the absence of understanding the duration of the immunological effect driven by the peptide in cattle.
The experimental design was a randomized design with a one-way treatment structure replicated in 3 batches. […] Milk samples were collected for transcriptomic analysis and cytokine profiles in the whey at 12 hours post-challenge. Differential quantitative milk leukocyte counts were collected for 7 days post challenge.
One hundred fifty bovine milk samples were obtained in 3 separate cohorts and processed to whey. The whey samples were analyzed for total protein levels and the levels of 8 total cytokines using the developed MSD whey U-Plex method.

## RFGRFLRKIRRFRPKVTITIQ [CATH2, truncated 1-21 amino acid L-form of chicken cathelicidin 2 peptide]
S. aureus
  animals showing a positive response to treatment: 55.6%
  severity of disease: reduction in bacterial counts and reduced somatic cell counts
S. aureus; twice daily for 3 days
  animals achieving clinical cure: 33.3%
[1]
  gene expression in udder secretions: increased expression of: CCL24, CXCL2, IL1RAP, CXCR1, and CXCR2
[2]; LPS or MPLA (TLR 4 agonist) stimulation, FIG. 1
  proinflammatory cytokines (IL-6, TNFα) upon LPS or MPLA stimulation: dose-dependent inhibition of proinflammatory cytokines
[2]; varying concentrations of the peptide, unstimulated
  proinflammatory cytokines in healthy unstimulated bovine mammary epithelial cells: minor increase in proinflammatory cytokines
E. coli challenge strain
  antibacterial activity in 10% and 20% milk: some inhibition of bacterial growth
E. coli challenge strain; 2-minute incubation, 500 CFU/mL E. coli
  antibacterial activity in 30% whole milk: completely block the antibacterial activity
E. coli challenge strain; E. coli below level of detection (10 CFU/mL) at 1, 2, 4, 6, 24 h
  antibacterial activity in bacterial medium alone: completely bactericidal
[3]
  gene expression in milk: increased expression of: CCL24, CXCL2, IL1RAP, CXCR1, and CXCR2
[4]
  proinflammatory cytokines (IL-6, TNFα) in PBMCs: effectively inhibits these proinflammatory cytokines
bacteria
  peptide antibacterial activity in the presence of milk: completely inhibited
Escherichia coli [5]
  overall protection against mastitis following IMM challenge with E. coli: best protection against mastitis
  intramammary infection observed: 52.94%
  animals meeting criteria for clinical mastitis: 47.06%
  milk concentrations of BSA, milk haptoglobin, milk amyloid A, IL-1 beta, IL-6, IL-8, IL-10 and TNFα: lowest
Escherichia coli [5]; Day 6, vehicle 0%
  cows with normal challenged quarter: 41.48%
Escherichia coli [5]; vehicle 80.0%, FIG. 12
  cows demonstrating fever: 41.2%
Escherichia coli [5]; vehicle 5.5 h
  duration of fever: 2.4 h
Escherichia coli [5]; vehicle >4.0
  peak E. coli counts from the challenged quarter: < 1.5 log10 CFU/mL
Escherichia coli [5]; vs vehicle control, FIG. 10
  bacterial load post challenge: greatest reduction in the bacterial load
Escherichia coli [5]; vs vehicle control, FIG. 13
  BSA level in the milk: lowest level of BSA in the milk
Streptococcus uberis; 50 mg/10 mL, 2 doses prior to challenge or 4 doses spanning challenge, FIG. 21
  animals meeting criteria for removal from study (Kaplan Meier analysis): reduction in the number of animals meeting criteria for removal of study
Streptococcus uberis; 50 mg/10 mL, both regimens, FIG. 22
  incidence of clinical mastitis: reduced incidence of clinical mastitis
Streptococcus uberis; 4 doses at -12, 0, 12, 24 hours
  progression of clinical mastitis, 4 dose regimen vs 2 dose regimen: greater capacity to inhibit the progression of clinical mastitis
Escherichia coli [6]; 50 mg/10 mL intramammary, 4 doses at -12, 0, 12, 24 h, saline 95.65%
  animals showing signs of clinical mastitis: 8.70%
Escherichia coli [6]; 50 mg/10 mL intramammary, 4 doses, 20 of 23 animals
  animals never positive for intramammary infection: 86.96% and 87.0%
Escherichia coli [6]; 50 mg/10 mL intramammary, 4 doses, 21 out of 23 animals
  animals that never met criteria for clinical mastitis: 91.3%
Escherichia coli [6]; 14-day study, saline 20 of 23
  animals qualifying for subclinical mastitis: None
Escherichia coli [6]; 6 hours post challenge, FIG. 6
  somatic cell count (SCC): notable increase in the SCC
Escherichia coli [6]; 12 hr post-challenge, vs saline
  milk whey cytokines (IL-1B, IL-6, IL-8/CXCL8, IL-10, TNFα): significantly lower levels of key inflammatory cytokines; also recorded: reduction in peak cytokine responses
Escherichia coli [6]; AfiLab in-line system, each milking, FIG. 7
  milk yield: maintained high milk yields
Escherichia coli [6]; all time points after Day 0 at 6 hours post-challenge, FIG. 8
  BSA levels in the milk vs Saline control: statistically significantly reduced BSA levels
Escherichia coli [6]; bovine, in vivo
  time of SCC return to baseline: ≤ 24 hours post challenge
Escherichia coli [6]; first 6 days, FIG. 4
  bacterial load in the milk: significant inhibition of E. coli ability to establish infection
Escherichia coli [6]; milk from challenged quarter
  BSA return to baseline levels: ≤ 3 Study Day
Escherichia coli [6]; rectal temperature, 22 of 23 animals
  animals not showing an increase in body temperature: 95.7%

## RCGRFLRKIRPFRRKVTITCQ [Analog 2, CATH2 1-21 analog]
Escherichia coli [5]
  overall protection against mastitis following IMM challenge with E. coli: Relatively limited protection against mastitis
  intramammary infection observed: 94.74%
  animals meeting criteria for clinical mastitis: 95.74%
  milk concentrations of BSA, milk haptoglobin, milk amyloid A, IL-1 beta, IL-6, IL-8, IL-10 and TNFα: modulation on acute phase proteins and key cytokines

## RFGRWLRKIRRYRGKVTITIQ [Analog 1, CATH2 1-21 analog]
Escherichia coli [5]
  overall protection against mastitis following IMM challenge with E. coli: Relatively limited protection against mastitis
  intramammary infection observed: 94.74%
  animals meeting criteria for clinical mastitis: 78.95%
  milk concentrations of BSA, milk haptoglobin, milk amyloid A, IL-1 beta, IL-6, IL-8, IL-10 and TNFα: modulation on acute phase proteins and key cytokines
